Measurements as given in paper PMC6006475 (2016).

Assays:
[1] = tested on: ds DNA (DNA, hairpin, HEG (hexaethylene glycol) linker between 10 and 11) TATAGCTATATATAGCTATA; assay: FRET melting; settings: 1 µM BTC, highest tested
[2] = tested on: c-MYC-(D) (DNA, G4) TGAGGGTGGGTAGGGTGGGTAA; assay: 1H NMR titration (imino region); settings: 25 mM Tris-HCl, pH 7.4, 298 K, 100 µM DNA, binds minor conformation
[3] = tested on: h-TELO-(A) (DNA, G4) GGGTTAGGGTTAGGGTTAGGG; assay: FRET melting; settings: 0.4 µM BTC, SD ±5%
[4] = tested on: h-TELO-(D) (DNA, G4) GGGTTAGGGTTAGGGTTAGGG; assay: 1H NMR titration (imino region); settings: 25 mM Tris-HCl, pH 7.4, 298 K, 100 µM DNA
[5] = tested on: c-MYC-(A) (DNA, G4) TGAGGGTGGGTAGGGTGGGTAA; assay: FRET melting; settings: 0.2 µM BTC, SD ±5%
[6] = none (K+-free, MQ water), pH ~7
[7] = K+ (50 mM potassium cacodylate), pH 7.4, pre-annealed

Question: Which results are given for `CN(C)CCCNC(=O)c1ccc(-n2cc(-c3ccc4[nH]c5ccc(-c6cn(-c7ccc(C(=O)NCCCN(C)C)cc7)nn6)cc5c4c3)nn2)cc1`?
Answer: ΔTm ([1]; K+ (50 mM potassium cacodylate), pH 7.4): 3 °C; ΔTm [1, 6]: 2.9 °C; binding ([2]; K+ (100 mM KCl)): yes; binding ([2]; none (K+-free)): yes; ΔTm [3, 7]: 38.7 °C; ΔTm [3, 6]: 38.5 °C; binding ([4]; K+ (100 mM KCl), weak shift perturbations): yes; binding ([4]; none (K+-free), partial folding promoted): yes; ΔTm [5, 7]: 24.0 °C; ΔTm [5, 6]: 23.5 °C
